In US20230144869A1, “METHODS FOR TREATING CYTOKINE RELEASE SYNDROME” (UNIVERSITY HEALTH NETWORK, priority 2020, published 2023):

How the values were obtained:
[1] = system: CD4+ and CD8+ T-cells in peripheral blood mononuclear cells (PBMCs); experiment: T-cell activation in stimulated PBMCs (activation markers by flow cytometry); format: cell-based, human; settings: PBMCs stimulated with anti-CD3 and anti-CD28 antibodies, PHA or SEB; 24 or 48 hours; FIG. 1A
[2] = system: anti-CD3 antibody and anti-CD28 antibody-, PHA- or SEB-activated lymphocytes; experiment: Proliferation of activated lymphocytes in PBMCs (3H-thymidine); format: cell-based, human; settings: PBMCs stimulated with anti-CD3 and anti-CD28 antibodies, 24 hours plus 18 hours labeling, FIG. 1B
Description: PBMCs (2×10^5 cells) were treated with either Compound 1 or DMSO, and anti-CD3 and anti-CD28 antibodies, PHA or SEB in RPMI 1640 medium containing 10% heat-inactivated FBS, 2-mercaptoethanol and penicillin-streptomycin antibiotics at 37° C., 5% CO2, and 100% humidity. After 24 hours, the cells were labeled with ^3H-thymidine for an additional 18 hours to measure lymphocyte proliferation by liquid scintillation counting. Proliferation of anti-CD3 antibody and anti-CD28 antibody-, PHA- or SEB-activated lymphocytes was inhibited by Compound 1 treatment, as shown in FIG. 1B. Similar data were obtained at 48 hours (data not shown). Data are representative of several independent experiments utilizing different PBMC samples, and are reported as the mean counts per minute (CPM)±standard deviation (SD) of duplicate wells.

[3] = system: PBMCs (effector) with irradiated allogenic PBMCs (stimulator); experiment: Allogenic mixed lymphocyte reaction (MLR); format: cell-based, human; settings: 4 days plus 18 hours labeling; FIG. 2A-2C
Description: The allogenic MLR is a cell proliferation assay where one population of lymphocytes (effector cells) is stimulated to proliferate by another genetically distinct population of lymphocytes (stimulator cells), which have been rendered non-proliferative. PBMCs [2×10^5 cells, effector (E) population] and irradiated (IR) allogenic PBMCs [1×10^5 cells, stimulator (S) population] were treated with either Compound 1 or DMSO in RPMI 1640 medium containing 10% heat-inactivated FBS, 2-mercaptoethanol and penicillin-streptomycin antibiotics at 37° C., 5% CO2, and 100% humidity. After 4 days, the cells were labeled with ^3H-thymidine for an additional 18 hours to measure lymphocyte proliferation by liquid scintillation counting. […] Multiple independent experiments utilizing different effector/stimulator pairs were conducted. Data are reported as the mean counts per minute (CPM)±standard deviation (SD) of triplicate wells.

[4] = system: anti-CD3 antibody and anti-CD28 antibody-activated PBMCs; experiment: Cytokine secretion by anti-CD3 and anti-CD28 antibody-activated PBMCs (LEGENDplex Human Th Cytokine Panel); format: cell-based; settings: culture supernatants after 24 hours; fold change relative to DMSO control; FIG. 3A
Description: PBMCs (2×10^5 cells) were treated with either Compound 1 or DMSO, and anti-CD3 and anti-CD28 antibodies in RPMI 1640 medium containing 10% heat-inactivated FBS, 2-mercaptoethanol and penicillin-streptomycin antibiotics at 37° C., 5% CO2, and 100% humidity. After 24 hours, cytokine levels in culture supernatants were determined by a LEGENDplex Human Th Cytokine Panel by manufacturer's instructions (BioLegend, Inc.).
In the presence of Compound 1, the level of all measured cytokines decreased, including IL-2, IL-6, IFNγ and TNFα. Data are representative of several independent experiments utilizing different human PBMC samples, and are reported as the fold change for Compound 1 relative to the DMSO control of duplicate wells.

[5] = system: mouse primary cancer-associated fibroblasts (CAFs); experiment: TGFβ production by primary cancer-associated fibroblasts (CAFs); format: cell-based; settings: after 3 days; fold change relative to DMSO control; FIG. 3B
Source text: Cancer-associated fibroblasts (CAFs) are used as a model system to investigate TGFβ cytokine production. C57BL/6 mice were obtained from The Jackson Laboratory. The Institutional Animal Care and Use Committee of the University Health Network approved all animal procedures. CAFs were obtained from C57BL/6 mice by growing MC38-CEA mouse colon cancer xenografts subcutaneously in a conventional manner. When tumors reached a size of approximately 1000 mm^3 they were excised and disaggregated, and CAFs were isolated with a Tumor-Associated Fibroblast Isolation Kit (Miltenyi Biotec). Isolated CAFs were grown with a MesenCult Expansion Kit (STEMCELL Technologies, Inc.) at 37° C., 5% CO2, 3% O2, and 100% relative humidity. CAFs were seeded into a 96-well plate in DMEM medium containing 10% FBS 24 hours before treatment with either Compound 1 or DMSO. After 3 days, latent TGFβ was determined by a Mouse Latent TGFβ Legend Max kit by manufacturer's instructions (BioLegend, Inc.). Compound 1 inhibited TGFβ production by mouse primary CAFs. Data are representative of several independent experiments, and are reported as the fold change for Compound 1 relative to the DMSO control of duplicate wells.

[6] = system: resting CD4+ and CD8+ T-cells; experiment: Viability of resting T-cells (annexin V / 7-AAD flow cytometry); format: cell-based, human; settings: 48 hours; except at high concentrations (30 μM); FIG. 4
Description: (§1) CD3^+ T-cells and CD14^+ monocytes were purified from PBMCs using Human CD3 MicroBeads and Human CD14 MicroBeads, respectively (Miltenyi Biotech). Purified CD3^+ T-cells (2×10^5 cells) or CD14^+ monocytes (2×10^5 cells) were treated with either Compound 1 or DMSO in RPMI 1640 medium containing 10% heat-inactivated FBS, 2-mercaptoethanol and penicillin-streptomycin antibiotics at 37° C., 5% CO2, and 100% humidity. After 48 hours, the cells were stained with antibodies specific for the indicated cell subsets, and annexin V and 7-aminoactinomycin D (7-AAD) cell viability dyes for measurement by flow cytometry. […] Similar data were obtained at 24 and 72 hours (data not shown). Data are representative of several independent experiments utilizing different human PBMC samples, and are reported as the A decrease in percent viability of duplicate wells [mean±standard deviation (SD)].

[7] = system: resting CD14+ monocytes; experiment: Viability of resting monocytes (annexin V / 7-AAD flow cytometry); format: cell-based, human; settings: 48 hours; FIG. 4
Description: as §1

[8] = system: unstimulated whole blood; experiment: Whole blood cytokine release assay (CRA); format: cell-based; settings: whole blood diluted 4:1 with RPMI 1640, 4 hours; LEGENDplex Human Th Cytokine Panel
Description: The potential for cytokine release syndrome in patients treated with Compound 1 was evaluated using a whole blood cytokine release assay (CRA). Fresh whole blood from a healthy human donor was diluted 4:1 with RPMI 1640 medium and cultured for 4 hours in the presence of Compound 1 or DMSO. Lipopolysaccharide (LPS) (1 μg/mL) was used as a positive control. Cytokine levels in serum samples were determined by a LEGENDplex Human Th Cytokine Panel by manufacturer's instructions (BioLegend, Inc.). […] Data listed in Table 1 below are representative of several independent experiments, and are reported as the mean fold change for Compound 1 relative to the DMSO control of duplicate wells.

[9] = system: C57BL/6 mice immunized with MOG35-55 peptide; experiment: Experimental autoimmune encephalomyelitis (EAE) model; format: in vivo, mouse; settings: 50 mg/kg PO QD during EAE induction; FIG. 5

Row | SMILES | CD4+ and CD8+ T-cell activation (cell surface expression of CD25 and CD69, shedding of CD62L) [1] | Lymphocyte proliferation (3H-thymidine, CPM) [2] | Lymphocyte proliferation in allogenic MLR (3H-thymidine, CPM) [3] | Level of all measured cytokines, including IL-2, IL-6, IFNγ and TNFα [4] | TGFβ production (latent TGFβ) [5] | Viability of resting CD4+ and CD8+ T-cells [6] | Viability of resting CD14+ monocytes [7] | Induction of cytokine levels predictive of cytokine release syndrome in vivo [8] | EAE disease progression (clinical score) [9]
1 | CN1CCN(c2ccc3nc(-c4c(N)c5ccsc5[nH]c4=O)[nH]c3c2)CC1 [Compound 1] | titratable inhibition | inhibited | dose-dependent inhibition | decreased | inhibited | no significant effect | dose-dependent loss of viability | did not induce | 
2 | CN1CCN(c2ccc3nc(-c4c(N)c5sccc5[nH]c4=O)[nH]c3c2)CC1 [Compound 2] |  |  |  |  |  |  |  |  | blocks EAE disease progression
